Reference: patent EP0271271B1, “Pharmaceutical preparations” (BEECHAM GROUP PLC, priority 1986, dated 1988)

Test system: conscious male spontaneously hypertensive rats (SHR)
Test: Systolic blood pressure by inflatable tail cuff in conscious spontaneously hypertensive rats
Type: in vivo
Description: Potentiation of the anti-hypertensive response to Compounds of formula (I) has been observed in conscious male spontaneously hypertensive rats (SHR) when the compounds were combined with the angiotensin I converting enzyme inhibitor enalapril. For the purpose of the experiment 36 rats were allotted at random to 4 groups, each of 9 rats. Systolic blood pressure (SBP) was measured non-invasively using an inflatable tail cuff technique as described in the aforementioned European Patent references. The protocol of the experiment was as follows: [table] […] The results were as shown in Table I. The protocol of the experiment for pinacidil was as follows: [table] […]

`CC(=O)NC1c2cc(C#N)ccc2OC(C)(C)C1O` (stereo not drawn) [Compound 4, trans-4-N-acetylamino-6-cyano-3,4-dihydro-2,2-dimethyl-2H-benzo[b]pyran-3-ol] was tested, and the “SBP change (quantity not headed in table; as % change of Table I)” value (Compound 4 0.15 mg/kg po alone, time 0.75, time-0 value 281±5) was 0±2, the “SBP change (quantity not headed in table; as % change of Table I)” value (Compound 4 0.15 mg/kg po alone, time 1.75, time-0 value 281±5) was -26±4 and the “SBP change (quantity not headed in table; as % change of Table I)” value (Compound 4 0.15 mg/kg po alone, time 2.75, time-0 value 281±5) was -23±4. The “SBP change (quantity not headed in table; as % change of Table I)” value (Compound 4 0.15 mg/kg po alone, time 4.75, time-0 value 281±5) was -13±2.

In the case of `CCOC(=O)[C@H](CCc1ccccc1)N[C@@H](C)C(=O)N1CCC[C@H]1C(=O)O` [Enalapril], the “SBP change (quantity not headed in table; as % change of Table I)” value (Compound 2 experiment: Compound (A) 3 mg/kg po alone, time 0.75, time-0 value 247±3) is reported as -9±1, the “SBP change (quantity not headed in table; as % change of Table I)” value (Compound 2 experiment: Compound (A) 3 mg/kg po alone, time 1.75, time-0 value 247±3) is reported as -22±2 and the “SBP change (quantity not headed in table; as % change of Table I)” value (Compound 2 experiment: Compound (A) 3 mg/kg po alone, time 2.75, time-0 value 247±3) is reported as -14±3. The “SBP change (quantity not headed in table; as % change of Table I)” value (Compound 2 experiment: Compound (A) 3 mg/kg po alone, time 4.75, time-0 value 247±3) was -16±2, the “SBP change (quantity not headed in table; as % change of Table I)” value (Compound 3 experiment: Compound (A) 3 mg/kg po alone, time 0.75, time-0 value 254±4) was -8±2 and the “SBP change (quantity not headed in table; as % change of Table I)” value (Compound 3 experiment: Compound (A) 3 mg/kg po alone, time 1.75, time-0 value 254±4) was -10±3. The “SBP change (quantity not headed in table; as % change of Table I)” value (Compound 3 experiment: Compound (A) 3 mg/kg po alone, time 2.75, time-0 value 254±4) was -12±4, the “SBP change (quantity not headed in table; as % change of Table I)” value (Compound 3 experiment: Compound (A) 3 mg/kg po alone, time 4.75, time-0 value 254±4) was -21±3 and the “SBP change (quantity not headed in table; as % change of Table I)” value (Compound 4 experiment: Compound (A) 3 mg/kg po alone, time 0.75, time-0 value 280±5) was -4±2. For the same compound, the “SBP change (quantity not headed in table; as % change of Table I)” value (Compound 4 experiment: Compound (A) 3 mg/kg po alone, time 1.75, time-0 value 280±5) was -9±2, the “SBP change (quantity not headed in table; as % change of Table I)” value (Compound 4 experiment: Compound (A) 3 mg/kg po alone, time 2.75, time-0 value 280±5) was -12±3 and the “SBP change (quantity not headed in table; as % change of Table I)” value (Compound 4 experiment: Compound (A) 3 mg/kg po alone, time 4.75, time-0 value 280±5) was -14±2. For the same compound, the “% change (± sem) of SBP” value (Group 2: enalapril 3 mg/kg po at 0 h, vehicle at 0.75 h, time 0.75 h, initial SBP 257±3 mmHg) was -8±2%, the “% change (± sem) of SBP” value (Group 2: enalapril 3 mg/kg po at 0 h, vehicle at 0.75 h, time 1.75 h, initial SBP 257±3 mmHg) was -11±4% and the “% change (± sem) of SBP” value (Group 2: enalapril 3 mg/kg po at 0 h, vehicle at 0.75 h, time 2.75 h, initial SBP 257±3 mmHg) was -15±2%. For the same compound, the “% change (± sem) of SBP” value (Group 2: enalapril 3 mg/kg po at 0 h, vehicle at 0.75 h, time 4.75 h, initial SBP 257±3 mmHg, n=7) was -17±2 (n=7) %, the “% change (± s.e.m.) of SBP” value (Pinacidil experiment, Group 2: enalapril 3 mg/kg po at 0 h, vehicle at 0.75 h, time 0.75 h, initial SBP 274±6 mmHg) was -4±1% and the “% change (± s.e.m.) of SBP” value (Pinacidil experiment, Group 2: enalapril 3 mg/kg po at 0 h, vehicle at 0.75 h, time 1.75 h, initial SBP 274±6 mmHg) was -14±3%. The “% change (± s.e.m.) of SBP” value (Pinacidil experiment, Group 2: enalapril 3 mg/kg po at 0 h, vehicle at 0.75 h, time 2.75 h, initial SBP 274±6 mmHg) was -16±3% and the “% change (± s.e.m.) of SBP” value (Pinacidil experiment, Group 2: enalapril 3 mg/kg po at 0 h, vehicle at 0.75 h, time 4.75 h, initial SBP 274±6 mmHg, n=8) was -17±3(n=8) %.

For `CC1(C)Oc2ccncc2[C@@H](N2CCCC2=O)[C@@H]1O` (relative stereo) [Compound 2, trans-3,4-dihydro-2,2-dimethyl-4-(2-oxopyrrolidin-1-yl)-2H-pyrano[3,2-c]pyridin-3-ol], the “SBP change (quantity not headed in table; as % change of Table I)” value (Compound 2 0.6 mg/kg po alone, time 0.75, time-0 value 244±6) was 1±2, the “SBP change (quantity not headed in table; as % change of Table I)” value (Compound 2 0.6 mg/kg po alone, time 1.75, time-0 value 244±6) was -20±2 and the “SBP change (quantity not headed in table; as % change of Table I)” value (Compound 2 0.6 mg/kg po alone, time 2.75, time-0 value 244±6) was -12±3. The “SBP change (quantity not headed in table; as % change of Table I)” value (Compound 2 0.6 mg/kg po alone, time 4.75, time-0 value 244±6) was -11±2.

In the case of `CC1(C)Oc2ccc(C#N)cc2[C@@H](N2CCCC2=O)[C@@H]1O` (relative stereo) [Compound 1, 6-cyano-3,4-dihydro-2,2-dimethyl-trans-4-(2-oxo-1-pyrrolidinyl)-2H-benzo[b]pyran-3-ol], the “% change (± sem) of SBP” value (Group 3: vehicle at 0 h, Compound 1 0.3 mg/kg po at 0.75 h, time 0.75 h (time of compound dosing), initial SBP 262±3 mmHg) is reported as -2±2%, the “% change (± sem) of SBP” value (Group 3: vehicle at 0 h, Compound 1 0.3 mg/kg po at 0.75 h, time 1.75 h, initial SBP 262±3 mmHg) is reported as -43±2% and the “% change (± sem) of SBP” value (Group 3: vehicle at 0 h, Compound 1 0.3 mg/kg po at 0.75 h, time 2.75 h, initial SBP 262±3 mmHg) is reported as -21±2%. For the same compound, the “% change (± sem) of SBP” value (Group 3: vehicle at 0 h, Compound 1 0.3 mg/kg po at 0.75 h, time 4.75 h, initial SBP 262±3 mmHg) was -15±3%.

For `CC(N/C(=N\C#N)Nc1ccncc1)C(C)(C)C` (stereo not shown) [Pinacidil, Nʺ-Cyano-N-4-pyridyl-Nʹ-1,2,2-trimethylpropylguanidine], the “% change (± s.e.m.) of SBP” value (Group 3: vehicle at 0 h, pinacidil 1 mg/kg po at 0.75 h, time 0.75 h (time of pinacidil dosing), initial SBP 269±4 mmHg) was “+4±1%”, the “% change (± s.e.m.) of SBP” value (Group 3: vehicle at 0 h, pinacidil 1 mg/kg po at 0.75 h, time 1.75 h, initial SBP 269±4 mmHg, n=8) was -33±5(n=8) % and the “% change (± s.e.m.) of SBP” value (Group 3: vehicle at 0 h, pinacidil 1 mg/kg po at 0.75 h, time 2.75 h, initial SBP 269±4 mmHg) was -19±3%. The “% change (± s.e.m.) of SBP” value (Group 3: vehicle at 0 h, pinacidil 1 mg/kg po at 0.75 h, time 4.75 h, initial SBP 269±4 mmHg) was -9±3%.

`CN1CCCN(C2c3cc(C#N)ccc3OC(C)(C)C2O)C1=O` (stereo not drawn) [Compound 3, 6-cyano-3,4-dihydro-2,2-dimethyl-trans-4-(N-3-methyltetrahydro-2-pyrimidone)-2H-benzo[b]pyran-3-ol] was tested, and the “SBP change (quantity not headed in table; as % change of Table I)” value (Compound 3 2.0 mg/kg po alone, time 0.75, time-0 value 253±6) was 0±3, the “SBP change (quantity not headed in table; as % change of Table I)” value (Compound 3 2.0 mg/kg po alone, time 1.75, time-0 value 253±6) was -20±3 and the “SBP change (quantity not headed in table; as % change of Table I)” value (Compound 3 2.0 mg/kg po alone, time 2.75, time-0 value 253±6) was -22±3. For the same compound, the “SBP change (quantity not headed in table; as % change of Table I)” value (Compound 3 2.0 mg/kg po alone, time 4.75, time-0 value 253±6) was -21±3.
